Results: patent publication US20240201204A1, “Biomarker and Druggable Target of Neurodegeneration” (University Hospitals Cleveland Medical Center, priority 2020, published 2024)

How the values were obtained:
[1] = patients with pediatric and adolescent congenital muscular dystrophy; cited from earlier work
C57BL/6J mice = test: Foot slip test of motor function after TBI; assay type: in vivo, mouse; settings: low-dose salsalate daily IP from 24 h after TBI, vs. TBI+Vehicle
Experimental: (§1) Drug preparation and administration: CGP3466B (Sigma-Aldrich, SML1941) was dissolved in DMSO and then diluted in sterile saline. The final working stock was 0.0014 mg/ml for administering the 0.014 mg/kg dose. Intraperitoneal administration of CGP3466B was initiated 15 min or 24 h after injury, and tissues were harvested 6 h (for SNO-GAPDH, SNO-SIRT1 measurement) or 2 weeks (for ac-tau measurement) later, respectively. Salsalate (AdipoGen, AG-CR1-3574) was dissolved in DMSO and then diluted in sterile PBS. The final working stocks were as follows: 2.5 mg/ml (25 mg/kg dose), 1 mg/ml (10 mg/kg dose), 0.5 mg/ml (5 mg/kg dose). Daily intraperitoneal administration of salsalate was initiated 24 hr after injury and continued throughout behavioral testing. P7C3-A20 and FK866 (Sigma-Aldrich, F8557) were first dissolved in 1 vol of DMSO, followed by addition of 4 vol of Kolliphor and vigorously vortexing. The solution was then diluted with 30 vol of filtered 5% dextrose (pH 7.0). EX527 (Selleckchem, S1541) was dissolved in 1% DMSO+30% polyethylene glycol+1% Tween 80. Daily intraperitoneal administration of P7C3-A20 was initiated 24 hr after poly-traumatic brain injury. […]
Foot slip test of motor function: Mice were trained to cross an 80 cm-long beam over two days and then tested on day 16. Video of the mice was recorded and analyzed by observers blind to treatment group.

[2] = Body weight during treatment after TBI; assay type: in vivo, mouse; settings: salsalate daily IP from 24 h after TBI
Experimental: Drug preparation and administration: CGP3466B (Sigma-Aldrich, SML1941) was dissolved in DMSO and then diluted in sterile saline. The final working stock was 0.0014 mg/ml for administering the 0.014 mg/kg dose. […] Salsalate (AdipoGen, AG-CR1-3574) was dissolved in DMSO and then diluted in sterile PBS. The final working stocks were as follows: 2.5 mg/ml (25 mg/kg dose), 1 mg/ml (10 mg/kg dose), 0.5 mg/ml (5 mg/kg dose). Daily intraperitoneal administration of salsalate was initiated 24 hr after injury and continued throughout behavioral testing. […] and FK866 (Sigma-Aldrich, F8557) were first dissolved in 1 vol of DMSO, followed by addition of 4 vol of Kolliphor and vigorously vortexing. The solution was then diluted with 30 vol of filtered 5% dextrose (pH 7.0). EX527 (Selleckchem, […]) was dissolved in 1% DMSO+30% polyethylene glycol+1% Tween 80. Daily intraperitoneal administration of […] was initiated 24 hr after poly-traumatic brain injury. EX527 (10 mg/kg) was administer once a day and FK866 was treated twice per day, with the first injection given at the same time as […] (20 mg/kg) and the second injection given 6 h later (LoCoco et al., 2017 eLife). […] The solution was then diluted with 7 vol of saline to the appropriate concentration for administration at 25, 50, or 100 mg/kg.

CCL2 = CCL2 expression in cerebral cortex after TBI (qPCR); assay type: in vivo, mouse; settings: 25 mg/kg salsalate
Experimental: as §1, with “injury. EX527 (10 mg/kg) was administer once a day and FK866 was treated twice per day, with the first injection given at the same time as P7C3-A20 (20 mg/kg) and the second injection given 6 h later (LoCoco et al., 2017 eLife).” for “injury.”

tau = test: Tau phosphorylation at S262 after TBI (western blot); assay type: in vivo, mouse; settings: salsalate treatment after TBI, vs. Sham-Injury
Experimental: as §1, with “7.0).” for “7.0). EX527 (Selleckchem, S1541) was dissolved in 1% DMSO+30% polyethylene glycol+1% Tween 80. Daily intraperitoneal administration of P7C3-A20 was initiated 24 hr after poly-traumatic brain injury.”
Western blotting: Western blotting was performed as described previously (Min et al., 2010), with the 9AB antibody against acetylated-tau generated in the Gan laboratory. […] Lysates were centrifuged at 170,000 g at 4° C. for 15 min and at 18,000 g at 4° C. for 10 min, after which protein concentrations of supernatants were measured by bicinchoninic acid assay (Thermo Scientific, A53225). […]

SMILES	safety in Phase 1 clinical trial [1]	post-TBI motor impairment (foot slip assay) (C57BL/6J mice)	body weight [2]	TBI-induced increase of CCL2 in cerebral cortex (CCL2)	phosphorylation of tau at S262 in hippocampus (tau)
C#CCN(C)CC1=Cc2ccccc2Oc2ccccc21.O=C(O)/C=C\C(=O)O [CGP3466B]	shown safety	–	–	–	–
O=C(Oc1ccccc1C(=O)O)c1ccccc1O [salsalate]	–	protects mice from post-TBI impairments	Body weight was not altered	this increase is not attenuated	remains significantly decreased in hippocampus
